Test results from paper PMC7048932, “Examining sterically demanding lysine analogs for histone lysine methyltransferase catalysis” (Scientific Reports, 2020).
“Also recorded” adds a separate entry of the source.

What was measured:
SETD7 = experiment: MALDI-TOF MS methylation assay of H3K4 peptides with SETD7; assay type: biochemical, human; conditions: peptide 100 µM, SETD7 2 µM, SAM 200 µM, 1 h, 37 °C
Method: (§1) MALDI-MS methyltransferases activity experiments were performed using a Bruker instrument in the reflectron positive mode. For regular methyltransferase standard conditions experiment which carried out in 30 µL total volume, the mixture contains peptide (100 µM), SAM (200 µM), SETD8 or SETD7 (2 µM), in assay buffer 50 mM Tris at optimal pH 8.0. In case of G9a and GLP, similar conditions were used, except (500 µM) of SAM was added to the reaction mixture. Samples were incubated in an Eppendorf vial 1.5 mL using thermomixer for 1 h at 37 °C. A 5 µL aliquot of the solution was mixed with 5 µL of MeOH, after which 5 µL of this mixture was mixed with 5 µL of α-cyano-4-hydroxycinamic acid matrix (CHCA, 5 mg/mL in 125:125 µL acetonitrile/water). The spots were placed on a stainless steel MALDI plate (MS 96 target ground steel BC of Bruker, Germany). The mass corresponding to one monomethylation observed as +14 Da, dimethylation observed as +28 Da and trimethylation observed as +42 Da. The enzymatic activity was determined by taking the peak areas of each methylation state, including all isotopes and adducts, and was annotated using FlexAnalysis software (Bruker Daltonics, Germany). […] Methylated peptide substrates were repeated five times and the unmethylated substrates were triplicated. Sequences of the examined peptides are given in (Supplementary Table 1).

GLP [1] = target: T1, GLP (Homo sapiens, UniProt Q9H9B1); experiment: NMR assay of GLP-catalyzed methylation of H3K9 peptides; assay type: biochemical; conditions: peptide 400 µM, GLP 8 µM, SAM 2 mM, 50 mM Tris-d11.HCl pD 8.0, 1 h, 37 °C
T1 construct: His6 (N); made in house; host or cells: E. coli BL21 (DE3)pLysS-rosetta
T1 sequence (Q9H9B1 1-1298): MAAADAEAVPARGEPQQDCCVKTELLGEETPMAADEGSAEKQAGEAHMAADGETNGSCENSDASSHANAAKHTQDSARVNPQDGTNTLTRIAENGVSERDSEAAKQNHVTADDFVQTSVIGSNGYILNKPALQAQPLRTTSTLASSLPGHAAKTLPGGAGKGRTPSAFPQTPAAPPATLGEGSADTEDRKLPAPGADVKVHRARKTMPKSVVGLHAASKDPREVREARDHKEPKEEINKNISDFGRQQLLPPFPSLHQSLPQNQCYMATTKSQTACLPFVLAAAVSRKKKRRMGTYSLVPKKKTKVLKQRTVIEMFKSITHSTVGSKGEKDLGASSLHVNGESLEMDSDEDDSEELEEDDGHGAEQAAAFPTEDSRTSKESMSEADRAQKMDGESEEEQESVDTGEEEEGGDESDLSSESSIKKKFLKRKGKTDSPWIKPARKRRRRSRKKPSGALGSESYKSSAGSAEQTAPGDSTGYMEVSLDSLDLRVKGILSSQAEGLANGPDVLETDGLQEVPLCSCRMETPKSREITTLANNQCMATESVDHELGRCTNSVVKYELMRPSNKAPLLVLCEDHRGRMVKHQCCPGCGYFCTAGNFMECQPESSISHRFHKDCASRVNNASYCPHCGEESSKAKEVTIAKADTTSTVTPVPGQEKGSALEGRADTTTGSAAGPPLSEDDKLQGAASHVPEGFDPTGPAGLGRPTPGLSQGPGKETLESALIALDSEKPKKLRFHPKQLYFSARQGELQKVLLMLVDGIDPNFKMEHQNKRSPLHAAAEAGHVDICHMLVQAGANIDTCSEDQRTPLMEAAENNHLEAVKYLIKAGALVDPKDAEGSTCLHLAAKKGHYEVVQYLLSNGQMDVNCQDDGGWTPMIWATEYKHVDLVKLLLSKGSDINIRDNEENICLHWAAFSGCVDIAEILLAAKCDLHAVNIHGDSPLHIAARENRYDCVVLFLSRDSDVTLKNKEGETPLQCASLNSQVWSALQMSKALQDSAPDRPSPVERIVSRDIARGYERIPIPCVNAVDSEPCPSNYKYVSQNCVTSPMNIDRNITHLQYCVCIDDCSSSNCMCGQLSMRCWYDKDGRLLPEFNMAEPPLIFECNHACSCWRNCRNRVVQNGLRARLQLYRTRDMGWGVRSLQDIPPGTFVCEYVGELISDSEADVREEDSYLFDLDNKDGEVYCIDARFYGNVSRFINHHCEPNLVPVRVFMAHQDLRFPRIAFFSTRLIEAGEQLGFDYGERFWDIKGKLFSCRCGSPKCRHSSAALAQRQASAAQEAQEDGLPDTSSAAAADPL

G9a = target: T2, G9a (Homo sapiens, UniProt Q96KQ7); experiment: MALDI-TOF MS methylation assay of H3K9 peptides with G9a; assay type: biochemical; conditions: peptide 100 µM, G9a 2 µM, SAM 500 µM, 1 h, 37 °C
T2 construct: His6 (N); made in house; host or cells: E. coli BL21 (DE3)pLysS-rosetta
T2 sequence (Q96KQ7 1-1210): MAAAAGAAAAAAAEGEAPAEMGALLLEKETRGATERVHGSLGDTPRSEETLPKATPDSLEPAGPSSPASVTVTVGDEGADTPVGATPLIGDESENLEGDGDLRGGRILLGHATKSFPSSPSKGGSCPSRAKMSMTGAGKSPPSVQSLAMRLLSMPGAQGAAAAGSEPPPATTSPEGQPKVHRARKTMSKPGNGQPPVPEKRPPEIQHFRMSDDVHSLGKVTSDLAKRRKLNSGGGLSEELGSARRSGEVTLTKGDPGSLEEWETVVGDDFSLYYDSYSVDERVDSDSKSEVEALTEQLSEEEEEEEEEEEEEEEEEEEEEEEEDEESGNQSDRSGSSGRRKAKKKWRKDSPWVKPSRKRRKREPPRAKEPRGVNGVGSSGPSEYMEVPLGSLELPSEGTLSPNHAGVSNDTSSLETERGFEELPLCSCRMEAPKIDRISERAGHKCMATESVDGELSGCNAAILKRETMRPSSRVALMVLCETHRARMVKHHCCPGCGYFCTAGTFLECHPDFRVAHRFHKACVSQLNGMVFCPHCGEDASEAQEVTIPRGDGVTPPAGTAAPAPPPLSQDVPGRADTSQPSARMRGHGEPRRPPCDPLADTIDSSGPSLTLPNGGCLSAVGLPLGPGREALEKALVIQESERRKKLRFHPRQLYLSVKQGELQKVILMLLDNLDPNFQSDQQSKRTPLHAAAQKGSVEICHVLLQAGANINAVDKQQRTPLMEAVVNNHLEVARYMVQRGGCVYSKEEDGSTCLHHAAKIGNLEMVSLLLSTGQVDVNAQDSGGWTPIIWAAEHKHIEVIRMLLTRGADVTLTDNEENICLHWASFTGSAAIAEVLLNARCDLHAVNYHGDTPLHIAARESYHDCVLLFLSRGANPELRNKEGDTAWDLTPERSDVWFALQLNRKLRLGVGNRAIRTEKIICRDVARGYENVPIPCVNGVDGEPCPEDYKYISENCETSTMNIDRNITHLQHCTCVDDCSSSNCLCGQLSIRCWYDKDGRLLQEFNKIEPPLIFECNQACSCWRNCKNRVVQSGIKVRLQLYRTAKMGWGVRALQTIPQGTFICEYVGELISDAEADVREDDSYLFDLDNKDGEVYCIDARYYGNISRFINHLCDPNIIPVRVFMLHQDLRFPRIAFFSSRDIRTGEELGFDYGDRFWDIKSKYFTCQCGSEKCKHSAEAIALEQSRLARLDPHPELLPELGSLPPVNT
Method: as §1

GLP [2] = target: T1, GLP; experiment: MALDI-TOF MS methylation assay of H3K9 peptides with GLP; assay type: biochemical; conditions: peptide 100 µM, GLP 10 µM, SAM 1 mM, 5 h, 37 °C, MALDI-MS
Method: as §1, with “Samples were incubated in an Eppendorf vial 1.5 mL using thermomixer for 1 h at 37 °C.” left out

SETD8 = target: T3, SETD8 (Homo sapiens, UniProt Q9NQR1); experiment: MALDI-TOF MS methylation assay of H4K20 peptides with SETD8; assay type: biochemical; conditions: peptide 100 µM, SETD8 10 µM, SAM 1 mM, 1 h and 5 h, 37 °C, MALDI-MS
T3 construct: His6 (N); made in house; host or cells: E. coli BL21 (DE3)pLysS-rosetta
T3 sequence (Q9NQR1 1-393): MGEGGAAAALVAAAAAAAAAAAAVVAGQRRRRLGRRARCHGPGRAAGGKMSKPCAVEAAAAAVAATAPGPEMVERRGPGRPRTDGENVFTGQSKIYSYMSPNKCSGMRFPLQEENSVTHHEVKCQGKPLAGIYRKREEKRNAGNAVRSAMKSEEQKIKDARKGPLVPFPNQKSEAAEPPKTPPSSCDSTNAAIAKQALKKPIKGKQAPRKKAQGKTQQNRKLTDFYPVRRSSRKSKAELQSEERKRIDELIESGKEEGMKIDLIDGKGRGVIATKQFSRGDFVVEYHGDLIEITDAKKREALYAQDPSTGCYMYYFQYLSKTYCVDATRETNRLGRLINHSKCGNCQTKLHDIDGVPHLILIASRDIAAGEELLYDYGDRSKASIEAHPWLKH
Method: as §1, with “For regular methyltransferase standard conditions experiment which carried out in 30 µL total volume, the mixture contains peptide (100 µM), SAM (200 µM), SETD8 or SETD7 (2 µM), in assay buffer 50 mM Tris at optimal pH 8.0.” left out

| Substance | G9a-catalyzed methylation, result in words (G9a) | SETD8-catalyzed methylation, result in words, increased SETD8/SAM and prolonged incubation (SETD8) | SETD7-catalyzed methylation, result in words (SETD7) | further results |
| --- | --- | --- | --- | --- |
| ART(Ap4)QTARKSTGGKA [H3AP4, H3K4 peptide bearing pyridylalanine at position 4] | – | – | lack of methylation | – |
| ART(F3a4)QTARKSTGGKA [H3F3a4, H3K4 peptide bearing meta-aminophenylalanine at position 4] | – | – | lack of methylation | – |
| ART(Kba4)QTARKSTGGKA [H3Kba4, H3K4 peptide bearing benzylamine lysine analog at position 4] | – | – | lack of methylation | – |
| ART(Y4)QTARKSTGGKA [H3Y4, H3K4 peptide bearing tyrosine at position 4] | – | – | lack of methylation | – |
| ARTKQTAR(Ap9)STGGKA [H3AP9] | lack of methylation | – | – | GLP-catalyzed methylation by 1H NMR / 1H-13C HSQC, result in words (GLP [1]): not methylated; GLP-catalyzed methylation, result in words, increased GLP/SAM (GLP [2]): lack of methylation |
| ARTKQTAR(F4a9)STGGKA [H3F4a9] | lack of methylation | – | – | GLP-catalyzed methylation by 1H NMR / 1H-13C HSQC, result in words (GLP [1]): not methylated; GLP-catalyzed methylation, result in words, increased GLP/SAM (GLP [2]): lack of methylation |
| ARTKQTARKSTGGK [H3 1-14K9, reference compound] | trimethylation | – | – | – |
| ARTK^4QTARKSTGGKA [H3K4, reference compound] | – | – | formation of monomethylated H3K4; also recorded: monomethylation | – |

More lines, main results first:

| G9a-catalyzed methylation, result in words (G9a) | SETD8-catalyzed methylation, result in words, increased SETD8/SAM and prolonged incubation (SETD8) | Substance | SETD7-catalyzed methylation, result in words (SETD7) | further results |
| --- | --- | --- | --- | --- |
| lack of methylation | – | ARTKQTAR(Y9)STGGKA (ARTKQTARYSTGGKA) [H3Y9] | – | GLP-catalyzed methylation by 1H NMR / 1H-13C HSQC, result in words (GLP [1]): not methylated; GLP-catalyzed methylation, result in words, increased GLP/SAM (GLP [2]): lack of methylation |
| – | lack of methylation | GGAKRHR(Ap20)VLRDNIQ [H4AP20, H4K20 peptide bearing pyridylalanine at position 20] | – | – |
| – | lack of methylation | GGAKRHR(F3a20)VLRDNIQ [H4F3a20, H4K20 peptide bearing meta-aminophenylalanine at position 20] | – | – |
| – | lack of methylation | GGAKRHR(F4a20)VLRDNIQ [H4F4a20, H4K20 peptide bearing para-aminophenylalanine at position 20] | – | – |
| – | lack of methylation | GGAKRHR(Y20)VLRDNIQ [H4Y20, H4K20 peptide bearing tyrosine at position 20] | – | – |
